We go through 20 compounds from ChEMBL document CHEMBL6115036, “Exploration of membrane-active cephalosporin derivatives as potent antibacterial agents against Staphylococcus aureus biofilms and persisters” (Eur J Med Chem, 2025).

A word on the MIC: it is the least concentration at which growth counts as inhibited. Usually HC50 stands for the concentration giving 50% haemolysis. A high value points to weaker haemolysis.

Each structure is given as a SMILES string. The source made the active and inactive calls. The calls are words filed in the database; no cut-off is given here.

Series [1] relates to Staphylococcus aureus. The series can be described thus: Antimicrobial activity against Staphylococcus aureus incubated for 16 to 18 hrs by broth dilution assay. Conditions: time 16-18 hrs. It is filed as functional.
For series [2], the system named is Staphylococcus aureus. The series is described as follows: Induction of cytoplasmic membrane depolarization in Staphylococcus aureus assessed as increase in fluorescence intensity at 16 ug/ml measured for 20 mins by DiSC3(5) dye based analysis. The class given is functional, organism-based. The note with it: dose 16.0 µg/ml.
For series [3], the system named is Staphylococcus aureus. The series can be described thus: Induction of inner membrane permeability in Staphylococcus aureus assessed as increase in fluorescence intensity at 16 ug/ml measured for 20 mins by PI dye based analysis. The note with it: dose 16.0 µg/ml. The class given is functional, organism-based.
The subject of the next series is Enterococcus faecalis. The series is described as follows: Antimicrobial activity against Enterococcus faecalis incubated for 16 to 18 hrs by broth dilution assay. The note with it: time 16-18 hrs. It is filed as functional.
In a further series the test system is Escherichia coli. The series can be described thus: Antimicrobial activity against Escherichia coli incubated for 16 to 18 hrs by broth dilution assay. The class given is functional. Conditions: time 16-18 hrs.
The nature of series [4]: Hemolytic activity in sheep red blood cells incubated for 1 hr. The class given is toxicity, cell-based, Ovis aries, Erythrocyte.
Series [5] has as its system Stenotrophomonas maltophilia. The series can be described thus: Antimicrobial activity against Stenotrophomonas maltophilia incubated for 16 to 18 hrs by broth dilution assay. It is filed as functional. The note with it: time 16-18 hrs.
The test system of series [6] is Staphylococcus aureus. The series can be described thus: Induction of inner membrane permeability in Staphylococcus aureus assessed as increase in fluorescence intensity measured for 20 mins by PI dye based analysis. The class given is functional, organism-based.
In series [7] the test system is Staphylococcus aureus. The series can be described thus: Induction of cytoplasmic membrane depolarization in Staphylococcus aureus assessed as increase in fluorescence intensity measured for 20 mins by DiSC3(5) dye based analysis. It is filed as functional, organism-based.

In the series on Staphylococcus aureus [1], `CCCCCCCCCCNC(=O)c1cc[n+](CC2=C(C(=O)OCc3ccc(OC)cc3)N3C(=O)[C@@H](NC(=O)Cc4ccccc4)[C@H]3SC2)cc1.[I-]` yielded an MIC of 0.25 µg/mL. The result with Staphylococcus aureus [2] and in the series with Staphylococcus aureus [3] was Active.
For `CCCCCCCCCCCCCCNC(=O)c1cc[n+](CC2=C(C(=O)O)N3C(=O)[C@@H](NC(=O)Cc4ccccc4)[C@H]3SC2)cc1.[I-]`, the MIC in the series with Staphylococcus aureus [1] was 4 µg/mL; against Enterococcus faecalis it was 16 µg/mL; against Escherichia coli it was above 128 µg/mL; in series [5], above 128 µg/mL. Moreover, the outcome in the series with Staphylococcus aureus [2] and with Staphylococcus aureus [3] was inactive. In series [4], this compound yielded a 50% haemolytic concentration (HC50) at 1 h of 151 µg/mL.
On to `CCCCCCCCNC(=O)c1ccc[n+](CC2=C(C(=O)O)N3C(=O)[C@@H](NC(=O)Cc4ccccc4)[C@H]3SC2)c1.[I-]`, for which the minimal inhibitory concentration (MIC) is 0.031 µg/mL against Staphylococcus aureus [1], 8 µg/mL in the series with Enterococcus faecalis, above 128 µg/mL against Escherichia coli and above 128 µg/mL in series [5]. Besides, the result in the series on Staphylococcus aureus [2] and in the series with Staphylococcus aureus [3] was inactive. Besides, in series [4], the HC50 at 1 h was above 1280 µg/mL.
For the compound `CCCCCCCCCCCCNC(=O)c1cc[n+](CC2=C(C(=O)O)N3C(=O)[C@@H](NC(=O)Cc4ccccc4)[C@H]3SC2)cc1.[I-]`, the MIC in the series on Staphylococcus aureus [1] was 0.25 µg/mL; in the series on Enterococcus faecalis it was 8 µg/mL; with Escherichia coli it was above 128 µg/mL; in series [5], above 128 µg/mL. For the same compound, the outcome in the series on Staphylococcus aureus [2] and with Staphylococcus aureus [3] was inactive. Further, the HC50 at 1 h in series [4] amounted to 254 µg/mL.
Take `CCCCCCCCCCCCCCNC(=O)c1ccc[n+](CC2=C(C(=O)O)N3C(=O)[C@@H](NC(=O)Cc4ccccc4)[C@H]3SC2)c1.[I-]`: the MIC is 2 µg/mL in the series on Staphylococcus aureus [1], 16 µg/mL against Enterococcus faecalis, above 128 µg/mL in the series with Escherichia coli and above 128 µg/mL in series [5]. In addition, the result with Staphylococcus aureus [2] and with Staphylococcus aureus [3] was inactive. Also, in series [4], the 50% haemolytic concentration (HC50) at 1 h was 155 µg/mL.
`CCCCCCCCNC(=O)c1cc[n+](CC2=C(C(=O)OCc3ccc(OC)cc3)N3C(=O)[C@@H](NC(=O)Cc4ccccc4)[C@H]3SC2)cc1.[I-]` gave an MIC in the series with Staphylococcus aureus [1] of 0.25 µg/mL. The outcome in the series with Staphylococcus aureus [2] and in the series on Staphylococcus aureus [3] was Active.
Regarding `CCCCCC[n+]1ccc(C(=O)N[C@@H]2C(=O)N3C(C(=O)OC(c4ccccc4)c4ccccc4)=C(COC(C)=O)CS[C@H]23)cc1.[I-]`, the MIC with Staphylococcus aureus [1] was 64 µg/mL; with Enterococcus faecalis it was 128 µg/mL; with Escherichia coli, above 128 µg/mL; in series [5], above 128 µg/mL. Also, the outcome with Staphylococcus aureus [6] and in the series with Staphylococcus aureus [7] was Active.
In the case of `CCCCCCCC[n+]1ccc(C(=O)N[C@@H]2C(=O)N3C(C(=O)OC(c4ccccc4)c4ccccc4)=C(COC(C)=O)CS[C@H]23)cc1.[I-]`, the minimum inhibitory concentration (MIC) came out at 16 µg/mL in the series on Staphylococcus aureus [1], 8 µg/mL with Enterococcus faecalis, 64 µg/mL in the series on Escherichia coli and 32 µg/mL in [5]. The result with Staphylococcus aureus [6] and in the series on Staphylococcus aureus [7] was Active.
Take `CCCCCCCCCC[n+]1ccc(C(=O)N[C@@H]2C(=O)N3C(C(=O)OC(c4ccccc4)c4ccccc4)=C(COC(C)=O)CS[C@H]23)cc1.[I-]`: the MIC in the series on Staphylococcus aureus [1] was determined as 2 µg/mL; with Enterococcus faecalis, 2 µg/mL; in the series with Escherichia coli, 32 µg/mL; in series [5], 32 µg/mL. Moreover, the result in the series with Staphylococcus aureus [6] and in the series with Staphylococcus aureus [7] was Active.
In the case of `CCCCCC[n+]1ccc(C(=O)N[C@@H]2C(=O)N3C(C(=O)O)=C(COC(C)=O)CS[C@H]23)cc1.[I-]`, the MIC (in the series on Staphylococcus aureus [1]; in the series with Enterococcus faecalis; against Escherichia coli; in [5]) was above 128 µg/mL each time. The result in the series with Staphylococcus aureus [6] and in the series with Staphylococcus aureus [7] was inactive.
`CCCCCCCC[n+]1ccc(SCC2=C(C(=O)OCc3ccc(OC)cc3)N3C(=O)[C@@H](NC(=O)Cc4ccccc4)[C@H]3SC2)cc1.O=C([O-])C(F)(F)F`: the MIC against Staphylococcus aureus [1] was 0.063 µg/mL; against Enterococcus faecalis, 8 µg/mL; against Escherichia coli, 64 µg/mL; in [5], 128 µg/mL. Moreover, the outcome in the series with Staphylococcus aureus [6] and in the series on Staphylococcus aureus [7] was Active.
For the compound `CCCCCCCCNC(=O)c1cc[n+](CC2=C(C(=O)O)N3C(=O)[C@@H](NC(=O)Cc4ccccc4)[C@H]3SC2)cc1.[I-]`, the MIC against Staphylococcus aureus [1] is 0.063 µg/mL; against Enterococcus faecalis it was 16 µg/mL; against Escherichia coli, above 128 µg/mL; in series [5] it was above 128 µg/mL. In addition, the outcome in the series with Staphylococcus aureus [2] and with Staphylococcus aureus [3] was inactive. This compound registered a concentration for 50% haemolysis (HC50) at 1 h in series [4] above 1280 µg/mL.
On to `CCCCCCCC[n+]1ccc(SCC2=C(C(=O)O)N3C(=O)[C@@H](NC(=O)Cc4ccccc4)[C@H]3SC2)cc1.O=C([O-])C(F)(F)F`, for which the minimal inhibitory concentration (MIC) in the series on Staphylococcus aureus [1] amounted to 0.063 µg/mL; with Enterococcus faecalis, 4 µg/mL; in the series with Escherichia coli it was 128 µg/mL; in [5] it was 128 µg/mL. The outcome in the series with Staphylococcus aureus [6] and with Staphylococcus aureus [7] was inactive.
Consider `CCCCCCCCCCNC(=O)c1cc[n+](CC2=C(C(=O)O)N3C(=O)[C@@H](NC(=O)Cc4ccccc4)[C@H]3SC2)cc1.[I-]`, for which the minimum inhibitory concentration (MIC) in the series with Staphylococcus aureus [1] is 0.063 µg/mL; against Enterococcus faecalis, 16 µg/mL; against Escherichia coli, above 128 µg/mL; in series [5], above 128 µg/mL. In addition, the outcome with Staphylococcus aureus [2] and with Staphylococcus aureus [3] was inactive. In series [4], this compound had an HC50 at 1 h of 321 µg/mL.
In turn, `CCCCCCCCCCNC(=O)c1ccc[n+](CC2=C(C(=O)OCc3ccc(OC)cc3)N3C(=O)[C@@H](NC(=O)Cc4ccccc4)[C@H]3SC2)c1.[I-]` registered an MIC with Staphylococcus aureus [1] of 0.25 µg/mL. Moreover, the outcome in the series with Staphylococcus aureus [2] and in the series on Staphylococcus aureus [3] was Active.
For `CCCCCCCCCCNC(=O)c1ccc[n+](CC2=C(C(=O)O)N3C(=O)[C@@H](NC(=O)Cc4ccccc4)[C@H]3SC2)c1.[I-]`, the minimal inhibitory concentration (MIC) against Staphylococcus aureus [1] is 0.063 µg/mL; with Enterococcus faecalis it was 16 µg/mL; in the series with Escherichia coli it was above 128 µg/mL; in [5] it was above 128 µg/mL. The outcome with Staphylococcus aureus [2] and in the series with Staphylococcus aureus [3] was inactive. The same compound had an HC50 at 1 h in [4] of 318 µg/mL.
In the series with Staphylococcus aureus [1], `CCCCCCCCNC(=O)c1ccc[n+](CC2=C(C(=O)OCc3ccc(OC)cc3)N3C(=O)[C@@H](NC(=O)Cc4ccccc4)[C@H]3SC2)c1.[I-]` registered an MIC of 0.25 µg/mL. Further, the result in the series with Staphylococcus aureus [2] and in the series on Staphylococcus aureus [3] was Active.
With `CCCCCCCCCCCCNC(=O)c1ccc[n+](CC2=C(C(=O)O)N3C(=O)[C@@H](NC(=O)Cc4ccccc4)[C@H]3SC2)c1.[I-]`, the minimum inhibitory concentration (MIC) in the series with Staphylococcus aureus [1] is 0.5 µg/mL; in the series on Enterococcus faecalis, 16 µg/mL; in the series on Escherichia coli, above 128 µg/mL; in series [5], above 128 µg/mL. The result in the series on Staphylococcus aureus [2] and in the series with Staphylococcus aureus [3] was inactive. The 50% haemolytic concentration (HC50) at 1 h in series [4] was found to be 291 µg/mL.
`CCCCNC(=O)c1ccc[n+](CC2=C(C(=O)O)N3C(=O)[C@@H](NC(=O)Cc4ccccc4)[C@H]3SC2)c1.[I-]`: the MIC was found to be 0.125 µg/mL with Staphylococcus aureus [1], 32 µg/mL against Enterococcus faecalis, 64 µg/mL against Escherichia coli and 128 µg/mL in series [5]. This compound had a concentration for 50% haemolysis (HC50) at 1 h in [4] above 1280 µg/mL.
On the same counts, the results for `CCCCCC[n+]1ccc(-c2cc[n+](CC3=C(C(=O)OCc4ccc(OC)cc4)N4C(=O)[C@@H](NC(=O)Cc5ccccc5)[C@H]4SC3)cc2)cc1.[I-].[I-]` are 0.5 µg/mL, 64 µg/mL, 64 µg/mL, 64 µg/mL and above 1280 µg/mL.
